The target of the assay is human PAD4 (hPAD4) (Homo sapiens, UniProt Q9UM07). Nature of the assay: RFMS Human PAD4 Functional Assay. Type of assay: biochemical. To be noted: 5 nM hPAD4, 250 μM BAEE. The method, then:
RFMS Human PAD4 Functional Assay:
Compounds were solubilized in 100% DMSO to achieve a 10 mM compound concentration. Compound stock solutions were stored at RT. A series of dilutions were prepared in DMSO and mixed 8 times with 20 μL mixing volume. Final top concentration of compound in the assay is 50 μM.
0.13 μL of compound solution was added to 13 μL of 10 nM PAD4 in assay buffer. After 30 min 13 μl of 500 μM of BAEE was added in 25 mM hepes, pH 7.5, 5 mM NaCl, 1 mM DTT, 0.2 mg/ml BSA, 0.01% CHAPS, 50 μM Calcium, 5 μM TPEN was added and the reaction incubated for 90 min at 37° C. The enzymatic reaction was quenched by addition of 15 μl of 6.1N TCA, 100% Final Concentration is 20%, 35 μl of 8.5 mM phenyl glyoxal (final concentration 4 mM) is then added and the reaction is incubated for 30 min at 37° C.
After 30 minutes the plates are spun down to remove all precipitate. The enzyme reaction was quenched with an equal volume of methanol containing internal standard (modified citrulline). Samples were loaded onto the Rapid Fire RF300 system (Agilent) wherein they were first sipped for 1000 ms and then directly loaded to a C18 separations cartridge using a mixture of acetonitrile containing 0.01% formic acid for 3000 ms desalting. The flow rate of the mobile phase was 1.5 ml/min.
The dwell time for each transition was set at 200 ms, and the ESI voltage was used at 5500 with a source temperature of 400° C. Extracted ion peaks for each transition were integrated using the Rapid Fire Integrator software. Peak area of analyte was normalized with internal standard.).

Setting [1] is: hPAD4 RFMS IC50, human PAD4, rapid-fire mass spectrum (RFMS) assay.
Setting [2] is: human PAD4, rapid-fire mass spectrum (RFMS) assay, read-out: hPAD4 RFMS IC50.

Like-named read-outs stand apart in the source and are kept apart here.

Chain of human PAD4 (hPAD4) (Q9UM07 whole entry): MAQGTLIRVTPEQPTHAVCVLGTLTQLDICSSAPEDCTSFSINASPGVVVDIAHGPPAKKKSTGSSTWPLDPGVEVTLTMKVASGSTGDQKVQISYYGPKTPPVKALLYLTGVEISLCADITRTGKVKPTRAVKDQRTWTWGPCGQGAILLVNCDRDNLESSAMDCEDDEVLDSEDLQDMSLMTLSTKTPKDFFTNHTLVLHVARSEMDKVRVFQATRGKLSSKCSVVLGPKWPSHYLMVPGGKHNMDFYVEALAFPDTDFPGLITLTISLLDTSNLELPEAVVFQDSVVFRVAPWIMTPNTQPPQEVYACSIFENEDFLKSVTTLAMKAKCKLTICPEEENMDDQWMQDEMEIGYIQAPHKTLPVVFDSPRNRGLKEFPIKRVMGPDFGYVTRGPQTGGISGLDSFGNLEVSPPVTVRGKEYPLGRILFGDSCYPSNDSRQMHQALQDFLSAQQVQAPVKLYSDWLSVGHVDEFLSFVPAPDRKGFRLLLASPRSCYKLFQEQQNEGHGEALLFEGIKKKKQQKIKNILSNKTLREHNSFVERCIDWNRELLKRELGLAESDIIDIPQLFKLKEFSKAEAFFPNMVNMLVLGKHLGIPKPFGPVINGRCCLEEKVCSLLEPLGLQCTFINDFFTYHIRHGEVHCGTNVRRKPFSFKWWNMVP

Under setting [1], `COc1cc(C(=O)N2C[C@H]3CC[C@@H]2[C@@H]3N)cc2nc(-c3cc4cccc(-c5ccc(CNC(C)=O)cc5)c4n3CC3CC3)n(C)c12` [Example 89, N-{[4-(2-{5-[(1R,4R,7R)-7-amino-2-azabicyclo[2.2.1]heptane-2-carbonyl]-7-methoxy-1-methyl-1H-1,3-benzodiazol-2-yl}-1-(cyclopropylmethyl)-1H-indol-7-yl)phenyl]methyl}acetamide] came in with an IC50 of 108 nM.

As for `COc1cc(C(=O)N2C[C@H](N)C[C@@H](F)C2)cc2nc(-c3cc4cccc(OC)c4n3CC3CC3)n(C)c12` [Example 185, ((3R,5R)-3-amino-5-fluoropiperidin-1-yl)(2-(1-(cyclopropylmethyl)-7-methoxy-1H-indol-2-yl)-7-methoxy-1-methyl-1H-benzo[d]imidazol-5-yl)methanone], the half-inhibitory concentration (IC50) under setting [2] worked out at 133 nM.

In turn, `COc1cc(C(=O)N2C[C@H]3CC[C@@H]2[C@@H]3N)cc2nc(-c3cc4cccc(C5CCN(C(=O)C6CC6)CC5)c4n3CC3CC3)n(C)c12` [Example 225, (4-(2-(5-((1R,4R,7R)-7-amino-2-azabicyclo[2.2.1]heptane-2-carbonyl)-7-methoxy-1-methyl-1H-benzo[d]imidazol-2-yl)-1-(cyclopropylmethyl)-1H-indol-7-yl)piperidin-1-yl)(cyclopropyl)metha-none] returned an IC50 under setting [1] of 112 nM.

`COc1cc(C(=O)N2C[C@H]3CC[C@@H]2[C@@H]3N)cc2nc(-c3cc4cccc(-c5cnn(C[C@@H](C)O)c5)c4n3CC3CC3)n(C)c12` [Example 138, ((1R,4R,7R)-7-amino-2-azabicyclo[2.2.1]heptan-2-yl)(2-(1-(cyclopropylmethyl)-7-(1-((R)-2-hydroxypropyl)-1H-pyrazol-4-yl)-1H-indol-2-yl)-7-methoxy-1-methyl-1H-benzo[d]imidazol-5-yl)methanone] displayed an IC50 under setting [1] of 147 nM.

As for `COc1cc(C(=O)N2C[C@H](N)C[C@@H](F)C2)cc2nc(-c3cc4cccc(C5CC(C(=O)N(C)C)C5)c4n3CC3CC3)n(C)c12` (single isomer, unassigned) [Example 117], half-maximal inhibition under setting [1] (IC50) was put at 117 nM.

`COc1cc(C(=O)N2C[C@H]3CC[C@@H]2[C@@H]3N)cc2nc(-c3cc4cccc(C5CCS(=O)(=O)C5)c4n3CC3CC3)n(C)c12` (stereo partly drawn) [Example 30, ((1R,4R,7R)-7-amino-2-azabicyclo[2.2.1]heptan-2-yl)(2-(1-(cyclopropylmethyl)-7-(1,1-dioxidotetrahydrothiophen-3-yl)-1H-indol-2-yl)-7-methoxy-1-methyl-1H-benzo[d]imidazol-5-yl)methanone] registered an IC50 under setting [1] of 80 nM.

For the compound `COc1cc(C(=O)N2C[C@H]3CC[C@@H]2[C@@H]3N)cc2nc(-c3cc4cccc(CCCCCN)c4n3CC3CC3)n(C)c12` [Example 16, (1R,4R,7R)-2-{2-[7-(5-aminopentyl)-1-(cyclopropylmethyl)-1H-indol-2-yl]-7-methoxy-1-methyl-1H-1,3-benzodiazole-5-carbonyl}-2-azabicyclo[2.2.1]heptan-7-amine], the IC50 under setting [1] amounted to 39 nM.

In turn, `COc1cc(C(=O)N2C[C@H](N)C[C@@H](F)C2)cc2nc(-c3cc4cccc(-c5ccc6c(c5)C(C)(O)C(=O)N6)c4n3CC3CC3)n(C)c12` (stereo partly drawn) [Example 208, 5-(2-(5-((3R,5R)-3-amino-5-fluoropiperidine-1-carbonyl)-7-methoxy-1-methyl-1H-benzo[d]imidazol-2-yl)-1-(cyclopropylmethyl)-1H-indol-7-yl)-3-hydroxy-3-methylindolin-2-one] displayed an IC50 under setting [1] of 71 nM.

With “1-(2-(5-((1R,4R,7R)- 7-amino-2- azabicyclo[2.2.1]heptane- 2-carbonyl)-7- methoxy-1-methyl- 1H-benzo[d]imidazol- 2-yl)-1- (cyclopropylmethyl)- 1H-indol-7-yl)-N- (pyridin-3- yl)piperidine-1- carboxamide [Example 244]”, the IC50 under setting [2] came to 19 nM.

In turn, `COc1cc(C(=O)N2C[C@H]3CC[C@@H]2[C@@H]3N)cc2nc(-c3cc4cccc(C5CN(C(=O)Cc6cnccn6)C5)c4n3CC3CC3)n(C)c12` [Example 76, 1-[3-(2-{5-[(1R,4R,7R)-7-amino-2-azabicyclo[2.2.1]heptane-2-carbonyl]-7-methoxy-1-methyl-1H-1,3-benzodiazol-2-yl}-1-(cyclopropylmethyl)-1H-indol-7-yl)azetidin-1-yl]-2-(pyrazin-2-yl)ethan-1-one] yielded an IC50 under setting [1] of 19 nM.

The compound `COc1cc(C(=O)N2CC3CCC2[C@@H]3N)cc2nc(-c3cc4cccc(-c5ccoc5)c4n3CC3CC3)n(C)c12` (stereo partly drawn) [Example 129, ((7R)-7-amino-2-azabicyclo[2.2.1]heptan-2-yl)(2-(1-(cyclopropylmethyl)-7-(furan-3-yl)-1H-indol-2-yl)-7-methoxy-1-methyl-1H-benzo[d]imidazol-5-yl)methanone] displayed an IC50 under setting [1] of 194 nM.

For the compound `COc1cc(C(=O)N2C[C@H](N)C[C@@H](F)C2)cc2nc(-c3cc4cccc(C5CCN(C(C)=O)CC5)c4n3CC3CC3)n(Cc3cnn(C)c3)c12` [Example 189, 1-(4-(2-(5-((3R,5R)-3-amino-5-fluoropiperidine-1-carbonyl)-7-methoxy-1-((1-methyl-1H-pyrazol-4-yl)methyl)-1H-benzo[d]imidazol-2-yl)-1-(cyclopropylmethyl)-1H-indol-7-yl)piperidin-1-yl)ethan-1-one], under setting [2], the 50% inhibitory concentration (IC50) came out at 18 nM.

As to `COc1cc(C(=O)N2CC3CCC2[C@@H]3N)cc2nc(-c3cc4cccc(Nc5ccc(CO)cc5)c4n3CC3CC3)n(C)c12` (stereo partly drawn) [Example 164, ((7R)-7-amino-2-azabicyclo[2.2.1]heptan-2-yl)(2-(1-(cyclopropylmethyl)-7-((4-(hydroxymethyl)phenyl)a-mino)-1H-indol-2-yl)-7-methoxy-1-methyl-1H-benzo[d]imidazol-5-yl)methanone], under setting [1], the IC50 is 153 nM.

`COc1cc(C(=O)N2C[C@H]3CC[C@@H]2[C@@H]3N)cc2nc(-c3cc4cccc(C5CCN(C(=O)Nc6ccc(F)cc6)CC5)c4n3CC3CC3)n(C)c12` [Example 241, 4-(2-(5-((1R,4R,7R)-7-amino-2-azabicyclo[2.2.1]heptane-2-carbonyl)-7-methoxy-1-methyl-1H-benzo[d]imidazol-2-yl)-1-(cyclopropylmethyl)-1H-indol-7-yl)-N-(4-fluorophenyl)piperidine-1-carboxamide] registered an IC50 under setting [1] of 28 nM.

In turn, `COc1cc(C(=O)N2C[C@H]3CC[C@@H]2[C@@H]3N)cc2nc(-c3cc4cccc(-c5ccc(CNC(C)=O)c(CO)c5)c4n3CC3CC3)n(C)c12` [Example 223, N-(4-(2-(5-((1R,4R,7R)-7-amino-2-azabicyclo[2.2.1]heptane-2-carbonyl)-7-methoxy-1-methyl-1H-benzo[d]imidazol-2-yl)-1-(cyclopropylmethyl)-1H-indol-7-yl)-2-(hydroxymethyl)benzyl) acetamide] gave an IC50 under setting [1] of 88 nM.

Consider `COc1cc(C(=O)N2C[C@H]3CC[C@@H]2[C@@H]3N)cc2nc(-c3cc4cccc(Nc5cnn(CC(F)F)c5)c4n3CC3CC3)n(C)c12` [Example 175, ((1R,4R,7R)-7-amino-2-azabicyclo[2.2.1]heptan-2-yl)(2-(1-(cyclopropylmethyl)-7-((1-(2,2-difluoroethyl)-1H-pyrazol-4-yl)amino)-1H-indol-2-yl)-7-methoxy-1-methyl-1H-benzo[d]imidazol-5-yl)methanone], for which the IC50 under setting [1] was 66 nM.

On to `COc1cc(C(=O)N2C[C@H]3CC[C@@H]2[C@@H]3N)cc2nc(-c3cc4cccc(C5CC(O)C5)c4n3CC3CC3)n(C)c12` (mixture of isomers) [Example 18, cis- and trans-3-(2-{5-[(1R,4R,7R)-7-amino-2-azabicyclo[2.2.1]heptane-2-carbonyl]-7-methoxy-1-methyl-1H-1,3-benzodiazol-2-yl}-1-(cyclopropylmethyl)-1H-indol-7-yl)cyclobutan-1-ol], for which the IC50 under setting [1] amounted to 71 nM.

Turning to `COc1cc(C(=O)N2C[C@H]3CC[C@@H]2[C@@H]3N)cc2nc(-c3cc4cccc(C5=CCNCC5)c4n3CC3CC3)n(C)c12` [Example 84], the IC50 under setting [2] turned out to be 34 nM.

On to `COc1cc(C(=O)N2C[C@H]3CC[C@@H]2[C@@H]3N)cc2nc(-c3cc4cccc(C5CN(C(=O)C(C)(C)O)C5)c4n3CC3CC3)n(C)c12` [Example 69, 1-[3-(2-{5-[(1R,4R,7R)-7-amino-2-azabicyclo[2.2.1]heptane-2-carbonyl]-7-methoxy-1-methyl-1H-1,3-benzodiazol-2-yl}-1-(cyclopropylmethyl)-1H-indol-7-yl)azetidin-1-yl]-2-hydroxy-2-methylpropan-1-one], for which the IC50 under setting [1] was 50 nM.

`COc1cc(C(=O)N2C[C@H]3CC[C@@H]2[C@@H]3N)cc2nc(-c3cc4cccc(C[C@H]5CC[C@H](N)CC5)c4n3CC3CC3)n(C)c12` [Example 14, ((1R,4R,7R)-7-amino-2-azabicyclo[2.2.1]heptan-2-yl)(2-(7-(((trans)-4-aminocyclohexyl)methyl)-1-(cyclopropylmethyl)-1H-indol-2-yl)-7-methoxy-1-methyl-1H-benzo[d]imidazol-5-yl)methanone] registered an IC50 under setting [1] of 38 nM.

(Values after patent US20220402950A1, “SUBSTITUTED BENZIMIDAZOLES AS PAD4 INHIBITORS” (BRISTOL-MYERS SQUIBB COMPANY, priority 2018, published 2022).)
